The values that follow are results of earlier work, collected in US8796415B2, “Inhibitors of guanine exchange factors and their use as anticancer drugs” (Centre National de la Recherche Scientifique, priority 2009, dated 2014).

One data set has as its target T1, Trio DH2-PH2 (Homo sapiens, UniProt O75962).
T1 construct: made in house
Conditions: Schmidt et al., 2002; cited from earlier work.

A further data set deals with T2, p115RhoGEF (Homo sapiens, UniProt Q92888).
T2 construct: GST (N); made in house; host or cells: baculovirus system
T2 sequence (Q92888 1-912): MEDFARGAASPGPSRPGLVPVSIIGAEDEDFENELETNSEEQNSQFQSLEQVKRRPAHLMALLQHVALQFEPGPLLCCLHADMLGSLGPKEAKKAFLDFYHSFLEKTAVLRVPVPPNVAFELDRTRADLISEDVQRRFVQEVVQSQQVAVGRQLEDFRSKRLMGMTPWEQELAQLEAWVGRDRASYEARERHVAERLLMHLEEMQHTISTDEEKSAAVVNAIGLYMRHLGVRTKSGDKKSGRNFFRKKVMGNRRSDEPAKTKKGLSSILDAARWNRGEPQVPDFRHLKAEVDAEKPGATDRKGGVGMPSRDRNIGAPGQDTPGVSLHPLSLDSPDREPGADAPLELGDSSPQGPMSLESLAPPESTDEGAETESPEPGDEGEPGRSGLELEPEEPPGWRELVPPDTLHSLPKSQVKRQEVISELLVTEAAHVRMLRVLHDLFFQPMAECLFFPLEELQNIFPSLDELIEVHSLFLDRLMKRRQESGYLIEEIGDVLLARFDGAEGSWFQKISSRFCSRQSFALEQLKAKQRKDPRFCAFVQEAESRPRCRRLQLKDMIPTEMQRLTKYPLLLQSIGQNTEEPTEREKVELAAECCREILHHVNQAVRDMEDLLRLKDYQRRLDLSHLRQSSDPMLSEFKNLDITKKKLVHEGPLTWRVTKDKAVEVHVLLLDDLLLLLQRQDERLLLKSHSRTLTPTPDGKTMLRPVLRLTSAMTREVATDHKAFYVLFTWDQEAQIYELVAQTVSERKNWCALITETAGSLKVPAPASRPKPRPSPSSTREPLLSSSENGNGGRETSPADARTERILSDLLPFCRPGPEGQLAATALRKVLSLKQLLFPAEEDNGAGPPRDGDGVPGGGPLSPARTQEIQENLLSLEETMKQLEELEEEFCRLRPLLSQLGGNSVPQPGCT
Conditions: shown previously (Schmidt et al., 2002 and unpublished results); cited from earlier work.

Turning to “AREGADGAICGYNLATLVMLGPSERVFCPLCEPCSSDIYELM [TRIPα]”, the “inhibition of Trio DH2-PH2 activation of RhoA” value at Trio DH2-PH2 was “inhibits its activation of RhoA both in vitro and in intact cells”. Besides, the “activity on p115RhoGEF” value at p115RhoGEF is “not active”.
